Experimental data taken from US20060116390A1, “Hepatitis c virus inhibitors” (priority 2003, published 2006).
Like-named read-outs stand apart in the source and are kept apart here.

Test system: HCV proteins in Rep5.1 cells (replicon cell line)
Assay: Inhibitory activity of HCV: cell-based ELISA in replicon cell line Rep5.1 (decrease of HCV proteins)
Design: species or system hepatitis C virus
Procedure, shortened: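 HCV protein loss was quantified by ELISA on methanol/acetone-fixed cells 72 h after drug addition, probing with selected HCV-positive human plasma, and IC50 was defined as 50% reduction relative to untreated wells. The cells were Rep5.1 replicon cells cultured in DMEM-10 with 500 μg/ml G418, plated at 5000 per well and dosed with serial dilutions after 4 h attachment.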

[1] = Hepatitis C virus, 72 h, Rep5.1 cells, 72 hours with drug, concentration at which 50% of HCV proteins was decreased, Table 2, read-out: IC50
[2] = Hepatitis C virus, 72 h, Rep5.1 cells, 72 hours with drug, decrease of HCV proteins measured by HCV antibody, Table 1, read-out: Level (IC50 values classified)
[3] = Rep5.1 cells, 72 hours with drug, concentration at which 50% of HCV proteins was decreased, Table 2, read-out: IC50

Structure (SMILES)	IC50 [1] [nM]	IC50 [2] [nM]	IC50 [3] [nM]	IC50 (Hepatitis C virus, 72 h) [nM]	IC50 (Hepatitis C virus, 72 h, read-out: Level (IC50 values classified)) [nM]
CCN(CCOC(=O)C1=C(C)NC(=S)NC1)c1cccc(C)c1 [Compound 59, 6-methyl-2-thioxo-1,2,3,4-tetrahydro-pyrimidine-5-carboxylic acid 2-(ethyl-m-tolyl-amino)-ethyl ester]	3000	1000 to 10000			
CC1=C(C(=O)OCc2ccc(-c3cc(C(F)(F)F)n(C)n3)s2)CNC(=S)N1 [Compound 222, 6-methyl-2-thioxo-1,2,3,4-tetrahydro-pyrimidine-5-carboxylic acid 5-(1-methyl-5-trifluoromethyl-1H-pyrazol-3-yl)-thiophen-2-ylmethyl ester]	< 400	< 1000			
CCOC(=O)CCCCCOC(=O)C1=C(C)NC(=S)NC1 [Compound 197, 6-methyl-2-thioxo-1,2,3,4-tetrahydro-pyrimidine-5-carboxylic acid 5-ethoxycarbonyl-pentyl ester]	> 100000	> 20000			
CC1=C(C(=O)OC(C)CCc2cccs2)C(CF)NC(=S)N1 (stereo not drawn) [74′, 4-fluoromethyl-6-methyl-2-thioxo-1,2,3,4-tetrahydro-pyrimidine-5-carboxylic acid 1-methyl-3-thiophen-2-yl-propyl ester]	7000	1000 to 10000			
CC1=C(C(=O)OCCc2ccsc2)C2(CC2)NC(=S)N1 [13′, 7-methyl-5-thioxo-4,6-diaza-spiro[2.5]oct-7-ene-8-airboxylic acid 2-thiophen-3-yl-ethyl ester]			79000		
CCOCC#CCOC(=O)C1=C(C)NC(=S)NC1 [Compound 236, 6-methyl-2-thioxo-1,2,3,4-tetrahydro-pyrimidine-5-carboxylic acid 4-ethoxy-but-2-inyl ester]			14000		
CC1=C(C(=O)O[C@H](C)c2ccccc2)CNC(=S)N1 (racemic) [Compound 26, 6-methyl-2-thioxo-1,2,3,4-tetrahydro-pyrimidine-5-carboxylic acid (R,S)-1-phenyl-ethyl ester]			3000		
CC1=C(C(=O)OCCc2cccc(Cl)c2)C(COC(=O)OCc2oc(=O)oc2C)NC(=S)N1 (stereo not drawn) [78″, 6-methyl-4-(5-methyl-2-oxo-[1,3]dioxol-4-ylmethoxycarbonyloxymethyl)-2-thioxo-1,2,3,4-tetrahydro-pyrimidine-5-carboxylic acid 2-(3-chloro-phenyl)-ethyl ester]	800	< 1000			
CC1=C(C(=O)OCCc2cc3c(C)nn(C)c3s2)CNC(=S)N1 [Compound 267, 6-methyl-2-thioxo-1,2,3,4-tetrahydro-pyrimidine-5-carboxylic acid 2-(1,3-dimethyl-1H-thieno[2,3-c]pyrazol-5-yl)-ethyl ester]	24000	> 20000			
CC1=C(C(=O)OCc2ccc(C)cc2C)CNC(=S)N1 [Compound 122, 6-methyl-2-thioxo-1,2,3,4-tetrahydro-pyrimidine-5-carboxylic acid 2,4-dimethyl-benzyl ester]	800	< 1000			
CC1=C(C(=O)OCCc2ccccc2C)CNC(=S)N1 [Compound 133, 6-methyl-2-thioxo-1,2,3,4-tetrahydro-pyrimidine-5-carboxylic acid 2-o-tolyl-ethyl ester]	< 400	< 1000			
CC1=C(C(=O)OCc2ccc(-c3ccccc3)cc2)C(CO)NC(=S)N1 (stereo not drawn) [28″, 4-hydroxymethyl-6-methyl-2-thioxo-1,2,3,4-tetrahydro-pyrimidine-5-carboxylic acid biphenyl-4-ylmethyl ester]	1000	< 1000			
CC1=C(C(=O)OCc2ccc(Cl)cc2Cl)CNC(=S)N1 [Compound 41, 6-methyl-2-thioxo-1,2,3,4-tetrahydro-pyrimidine-5-carboxylic acid 2,4-dichloro-benzyl ester]	< 400	< 1000			
CC1=C(C(=O)OCc2cccc(SC(F)(F)F)c2)C(CO)NC(=S)N1 (stereo not drawn) [33″, 4-hydroxymethyl-6-methyl-2-thioxo-1,2,3,4-tetrahydro-pyrimidine-5-carboxylic acid 3-trifluoromethylsulfanyl-benzyl ester]	< 400	< 1000			
CC1=C(C(=O)OCCc2ccc(N(C)C)cc2)CNC(=S)N1 [Compound 95, 6-methyl-2-thioxo-1,2,3,4-tetrahydro-pyrimidine-5-carboxylic acid 2-(4-dimethylamino-phenyl)-ethyl ester]	700	< 1000			
CC1=C(C(=O)OCc2cc3c(C)snc3s2)CNC(=S)N1 [Compound 213, 6-methyl-2-thioxo-1,2,3,4-tetrahydro-pyrimidine-5-carboxylic acid 3-methyl-thieno[2,3-c]isothiazol-5-ylmethyl ester]	4000	1000 to 10000			
CC1=C(C(=O)OCC2CC=CCC2)C(CF)NC(=S)N1 (stereo not drawn) [44′, 4-fluoromethyl-6-methyl-2-thioxo-1,2,3,4-tetrahydro-pyrimidine-5-carboxylic acid cyclohex-3-enylmethyl ester]	2800	1000 to 10000			

Structure (SMILES)	IC50 [1] [nM]	IC50 [2] [nM]	IC50 [3] [nM]	IC50 (Hepatitis C virus, 72 h) [nM]	IC50 (Hepatitis C virus, 72 h, read-out: Level (IC50 values classified)) [nM]
COCC1NC(=S)NC(C)=C1C(=O)OCCc1ccsc1 (stereo not drawn) [2″, 4-methoxymethyl-6-methyl-2-thioxo-1,2,3,4-tetrahydro-pyrimidine-5-carboxylic acid 2-thiophen-3-yl-ethyl ester]	35000	> 20000			
CC1=C(C(=O)OCc2cc(Cl)cc(Cl)c2)C(COS(C)(=O)=O)NC(=S)N1 (stereo not drawn) [50″, 4-methanesulfonyloxymethyl-6-methyl-2-thioxo-1,2,3,4-tetrahydro-pyrimidine-5-carboxylic acid 3,5-dichloro-benzyl ester]	68000	> 20000			
CC1=C(C(=O)OCc2cc(C)cc(C)c2)CNC(=S)N1 [Compound 82, 6-methyl-2-thioxo-1,2,3,4-tetrahydro-pyrimidine-5-carboxylic acid 3,5-dimethyl-benzyl ester]	300	< 1000			
CC1=C(C(=O)OCc2nc3ccccc3s2)CNC(=S)N1 [Compound 226, 6-methyl-2-thioxo-1,2,3,4-tetrahydro-pyrimidine-5-carboxylic acid benzothiazol-2-ylmethyl ester]	2200	1000 to 10000			
CC1=C(C(=O)OCCc2ccccc2)CNC(=S)N1 [Compound 34, 6-methyl-2-thioxo-1,2,3,4-tetrahydro-pyrimidine-5-carboxylic acid phenethyl ester]	2000	1000 to 10000			
COc1ccccc1COC(=O)C1=C(C)NC(=S)NC1 [Compound 65, 6-methyl-2-thioxo-1,2,3,4-tetrahydro-pyrimidine-5-carboxylic acid 2-methoxy-benzyl ester]	1000	< 1000			
CC1=C(C(=O)OCC2CCCO2)CNC(=S)N1 (stereo not drawn) [Compound 161, 6-methyl-2-thioxo-1,2,3,4-tetrahydro-pyrimidine-5-carboxylic acid tetrahydrofuran-2-ylmethyl ester]	> 100000	> 20000			
COc1ccc(CCCOC(=O)C2=C(C)NC(=S)NC2)cc1OC [Compound 36, 6-methyl-2-thioxo-1,2,3,4-tetrahydro-pyrimidine-5-carboxylic acid 3-(3,4-dimethoxy-phenyl)-propyl ester]	84000	> 20000			
COc1ccc(CCOC(=O)C2=C(C)NC(=S)NC2)cc1 [Compound 92, 6-methyl-2-thioxo-1,2,3,4-tetrahydro-pyrimidine-5-carboxylic acid 2-(4-methoxy-phenyl)-ethyl ester]	1000	< 1000			
CC1=C(C(=O)SCc2ccco2)CNC(=S)N1 [38′, 6-methyl-2-thioxo-1,2,3,4-tetrahydro-pyrimidine-5-carbothioic acid S-furan-2-ylmethyl ester]	700	< 1000			
CC1=C(C(=O)OCCc2cccc([N+](=O)[O-])c2)C(COC(=O)OCC2COC(C)(C)O2)NC(=S)N1 (stereo not drawn) [77″, 4-(2,2-dimethyl-[1,3]dioxolan-4-ylmethoxycarbonyloxymethyl)-6-methyl-2-thioxo-1,2,3,4-tetrahydro-pyrimidine-5-carboxylic acid 2-(3-nitro-phenyl)-ethyl ester]	5600	1000 to 10000			
CC1=C(C(=O)OCC2=CCC3CC2C3(C)C)CNC(=S)N1 (stereo not drawn) [Compound 97, 6-methyl-2-thioxo-1,2,3,4-tetrahydro-pyrimidine-5-carboxylic acid 6,6-dimethyl-bicyclo[3.1.1]hept-2-en-2-ylmethyl ester]				< 400	< 1000
CCCN(CC)c1ccc(CCOC(=O)C2=C(C)NC(=S)NC2CO)cc1[N+](=O)[O-] (stereo not drawn) [92″, 4-Hydroxymethyl-6-methyl-2-thioxo-1,2,3,4-tetrahydro-pyrimidine-5-carboxylic acid 2-[4-(ethyl-propylamino)-3-nitro-phenyl]-ethyl ester]	400	< 1000			
CCCCc1ccc(COC(=O)C2=C(C)NC(=S)NC2)cc1 [Compound 51, 6-methyl-2-thioxo-1,2,3,4-tetrahydro-pyrimidine-5-carboxylic acid 4-butyl-benzyl ester]	< 500	< 1000			
O=C(OCCc1ccsc1)C1=CNC(=S)NC1 [Compound 261, 2-thioxo-1,2,3,4-tetrahydro-pyrimidine-5-carboxylic acid 2-thiophen-3-yl-ethyl ester]	800	< 1000			
CC1=C(C(=O)OCCc2ccc(N(C)C)cc2)C(CO)NC(=S)N1 (stereo not drawn) [12″, 4-hydroxymethyl-6-methyl-2-thioxo-1,2,3,4-tetrahydro-pyrimidine-5-carboxylic acid 2-(4-dimethylamino-phenyl)-ethyl ester]	31000	> 20000			
